According to ChEMBL document CHEMBL4261596, “Growth inhibition of human ovarian carcinoma by a novel AvidinOX-anchored biotinylated camptothecin derivative” (Bioorg Med Chem Lett, 2018):
The source made the active and inactive calls. No cut-off for these calls is given here.

Tests used:
A-431 = assay: Antiproliferative activity against human A431 cells; format: functional, cell-based
SK-OV-3 [1] = assay: Antitumor activity against human SKOV3 cells xenografted in intratumorally dosed Nu/Nu mouse assessed as inhibition of tumor volume administered as single dose and monitored for 2 weeks starting from day 18 post tumor injection and measured after 32 days post dose using avidinOX conjugated compound; format: functional
Mus musculus [2] = assay: Toxicity in Nu/Nu intratumorally dosed mouse xenografted with human […] cells assessed as effect on body weight administered as single dose starting from day 18 post tumor injection and measured for 50 days post dose using avidinOX conjugated compound; format: organism-based; conditions: in vivo, other, 1200 h
Mus musculus [3] = assay: Toxicity in Nu/Nu intratumorally dosed mouse xenografted with human […] cells assessed as effect on body weight administered as single dose starting from day 18 post tumor injection and measured for 50 days post dose; format: organism-based; conditions: in vivo, other, 1200 h
SK-OV-3 [4] = assay: Antitumor activity against human SKOV3 cells xenografted in intratumorally dosed Nu/Nu mouse assessed as inhibition of tumor volume administered as single dose and monitored for 2 weeks starting from day 18 post tumor injection and measured after 32 days post dose; format: functional
[5] = target: Streptavidin (Streptomyces avidinii) (UniProt P22629); assay: Binding affinity to Streptomyces avidinii streptavidin assessed as reduction in biotinylated-alkaline phosphatase (unknown origin) binding at 1 to 1000 uM by ELISA
Chain of Streptavidin (Streptomyces avidinii) (P22629 whole entry): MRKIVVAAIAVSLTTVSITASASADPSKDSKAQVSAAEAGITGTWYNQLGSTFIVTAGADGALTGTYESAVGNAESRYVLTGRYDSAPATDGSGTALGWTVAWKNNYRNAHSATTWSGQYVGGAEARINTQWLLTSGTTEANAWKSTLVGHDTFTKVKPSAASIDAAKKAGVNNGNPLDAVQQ

IC50 (A-431): 9.2 nM
Activity [5]: Active
SMILES: CC[C@@]1(OC(=O)OCCSSCCNC(=O)CCCC[C@@H]2SC[C@@H]3NC(=O)N[C@@H]32)C(=O)OCc2c1cc1n(c2=O)Cc2c-1nc1ccccc1c2/C=N/OC(C)(C)C
TGI (SK-OV-3 [1]): 68%
Activity (Mus musculus [2]): Non-Toxic
Activity (Mus musculus [3]): Non-Toxic
TGI (SK-OV-3 [4]): 48%
